Laboratory results taken from patent publication US20030119826A1, “Neuroprotective treatment methods using selective iNOS inhibitors” (Pharmacia Corporation, priority 2001, published 2003).
Structures can show the parent of a compound that is named as a salt. Where two headings read alike, the source gives them in different places. One block for each compound: values may come before it.

How the values were obtained:
[1] = system: Human Cartilage explants, IL-1β-induced nitric oxide synthase (nitrite production); assay: Human cartilage explant assay (nitrite production, IL-1β induced); assay type: cell-based; details: inhibition of nitrite production, IL-1β stimulated explants
Description: Bone pieces are rinsed twice with Dulbecco's Phosphate Buffered Saline (GibcoBRL) and once with Dulbecco's Modified Eagles Medium (GibcoBRL) and placed into a petri dish with phenol red free Minimum Essential Medium (MEM) (GibcoBRL). Cartilage was cut into small explants of approximately 15-45 mg in weight and one or two explants per well are placed into either 96 or 48 well culture plates with 200-500 μL of culture media per well. The culture media was either a custom modification of Minimum Essential Medium(Eagle) with Earle's salts (GibcoBRL) prepared without L-Arginine, without L-Glutamine and without phenol red or a custom modification of serumless Neuman and Tytell (GibcoBRL) medium prepared without L-arginine, without insulin, without ascorbic acid, without L-glutamine and without phenol red. Both are supplemented before use with 100 μM L-Arginine (Sigma), 2 mM L-glutamine, 1X HL-1 supplement (BioWhittaker), […] ascorbic acid (Sigma) and 150 pg/ml recombinant human IL-1β (RD Systems) to induce nitric oxide synthase. Compounds are then added in 10 μL aliquots and the explants incubated at 37° C. with 5% CO2 for 18-24 hours. The day old supernatant is then discarded and replaced with fresh culture media containing recombinant human IL-1β and compound and incubated for another 20-24 hours. […] All samples are done in quadruplicate. Unstimulated controls are cultured in media in the absence of recombinant human IL-1β. IC50 values (Table I)are determined from plotting the percent inhibition of nitrite production at six different concentrations of inhibitor.

[2] = system: LPS-induced increase in plasma nitrite/nitrate levels; assay: Endotoxin (LPS)-treated rats, plasma nitrite/nitrate levels; assay type: in vivo, rat; details: oral administration, plasma nitrite/nitrate 5 hours post-treatment
Description: Plasma nitrite/nitrate levels can be determined 5 hours post-treatment.

retinal ganglion cells = details: rats with chronic moderately elevated IOP, cited from earlier work
[3] = Rattus norvegicus, read-out: ED50

SMILES: CC(=N)NCC(F)=CCC[C@H](N)C(=O)O (mixture of isomers) [Example B, (2S,5E/Z)-2-amino-6-fluoro-7-[(1-iminoethyl)amino]-5-heptenoic acid, dihydrochloride]
IC50 ([1]; Homo sapiens): 200 nM

SMILES: CC(=N)NC/C(F)=C\CC[C@H](N)C(=O)O [Example A, (2S,5E)-2-amino-6-fluoro-7-[(1-iminoethyl)amino]-5-heptenoic acid, dihydrochloride, monohydrate]
ED50 [2, 3]: < 0.1 mg/kg
ED50 ([2]; dihydrochloride, monohydrate): <0.1 mg/kg
IC50 ([1]; Homo sapiens): 100 nM

SMILES: CC(=N)NC/C(F)=C/CC[C@H](N)C(=O)O [Example D, (2S,5Z)-2-amino-6-fluoro-7-[(1-iminoethyl)amino]-5-heptenoic acid, trihydrochloride, dihydrate]
ED50 [2, 3]: > 10 mg/kg
IC50 ([1]; Homo sapiens): 2500 nM

melting point: 198 to 200 °C
SMILES: CC(=NO)NC/C(F)=C\CC[C@H](N)C(=O)O [Example G, (2S,5E)-2-amino-6-fluoro-7-[(1-hydroximinoethyl)amino]-5-heptenoic acid]
ED50 [2, 3]: < 0.1 mg/kg

SMILES: CC(=N)NC/C(F)=C\CC[C@H](N)C(=O)Nc1nnn[nH]1 [Example H, (2S,5E)-2-amino-6-fluoro-7-[(1-iminoethyl)amino]-N-(1H-tetrazol-5-yl) 5-heptenamide, dihydrochloride]
ED50 [2, 3]: < 0.3 mg/kg

SMILES: CC(=N)NC/C(F)=C\CC[C@](C)(N)C(=O)O.Cl.Cl [Example HH, (2S,5E)-2-amino-2-methyl-6-fluoro-7-[(1-iminoethyl)amino]-5-heptenoic acid, dihydrochloride]
ED50 [2, 3]: 0.4 mg/kg
IC50 ([1]; Homo sapiens): 400 nM

SMILES: COC[C@](N)(CSCCNC(C)=N)C(=O)O [Example J, 2-[[[2-[(1-Iminoethyl)amino]ethyl]thio]methyl]-O-methyl-D-serine, dihydrochloride]
IC50 [1]: 8200 nM

SMILES: CC(=N)NC/C=C\CC[C@](C)(N)C(=O)O.Cl.Cl [Example LL, (2S,5Z)-2-amino-2-methyl-7-[(1-iminoethyl)amino]-5-heptenoic acid, dihydrochloride]
ED50 [2, 3]: 0.3 mg/kg
IC50 ([1]; Homo sapiens): 800 nM

SMILES: N=C1CCCC[C@H](CCCC[C@@H](N)C(=O)O)N1 [Example V, ([…]R,2S)-[…]-aminohexahydro-7-imino-1H-azepine-2-hexanoic acid, trihydrate hydrochloride]
ED50 [2, 3]: < 3 mg/kg
IC50 ([1]; Homo sapiens): < 10000 nM

SMILES: N=C1CCCC[C@@H](CCCC[C@H](N)C(=O)O)N1 [Example W, ([…]S,2R)-[…]-aminohexahydro-7-imino-1H-azepine-2-hexanoic acid, trihydrate hydrochloride]
ED50 [2, 3]: > 10 mg/kg
IC50 ([1]; Homo sapiens): > 30000 nM

SMILES: N=C1CCCC[C@H](CCCC[C@H](N)C(=O)O)N1 [Example X, ([…]S,2S)-[…]-aminohexahydro-7-imino-1H-azepine-2-hexanoic acid, trihydrate hydrochloride]
IC50 ([1]; Homo sapiens): < 10000 nM

SMILES: N=C1CCCC[C@H](CCCC[C@@H](N)C(=O)O)N1 [Example Y, ([…]R,2S)-[…]-aminohexahydro-7-imino-1H-azepine-2-hexanoic acid, trihydrate hydrochloride]
IC50 [1]: < 10000 nM

SMILES: N=C(N)NN [aminoguanidine]
neuroprotection / loss of retinal ganglion cells (retinal ganglion cells): blocks loss of retinal ganglion cells
neuroprotection / loss of retinal ganglion cells (retinal ganglion cells; listed as Aminoguanidine): provide neuroprotection to retinal ganglion cells
